Molecules are shown by their SMILES. Values after ≈ are worked out from the molar mass of the structure shown.

The test system of this experiment is Aspergillus fumigatus. In words: MIC measurement, YAG medium. The conditions noted are these: Aspergillus fumigatus; YAG medium; MIC banded into grades; strain AF293; read-out: MIC A. fumigatus. The format is cell-based. Here is the method: Between 1 and 5 mgs of compound were accurately weighed out into a sterile Eppendorf tube. The compound was dissolved in DMSO to give a solution containing […]. Tubes were stored at −20° C. until required.
On the day of testing thawed solutions were vortex mixed to ensure homogeneity. 30 μL of solution was removed and added to 570 μL of sterile water in a separate sterile Eppendorf. The thoroughly mixed solution was used to prepare a series of doubling dilutions in water, in a deep well plate. Thirteen replicate plates were prepared using a Minitrak by aspirating 20 μL from each well into eleven clear polystyrene 96 well plates.
Spores of Aspergillus spp. (Aspergillus fumigatus [two strains], Aspergillus terreus [two strains], Aspergillus niger and Aspergillus flavus) were harvested from cultures grown on Sabarauds agar for 5 days, and resuspended in PBS/Tween 80 to approx 1×10^7 cfu/mL. Other filamentous fungi (Absidia corymbifera, Fusarium solani, Rhizomucor, Scedosporium spp., Trichophyton spp.), were grown on Sabarauds agar for 2-10 days and spores/hyphae resuspended in PBS/Tween to give approx 1×10^7 cfu/mL. Candida species (Candida albicans, Candida glabrata, Candida krusei, Candida parapsilosis and Candida tropicalis) were grown on Sabarauds agar, cells were harvested from the agar using a sterile loop and resuspended in PBS/Tween 80 to approx 1×10^6 cfu/mL. Each organism suspension was diluted in RPMI medium, containing 2% glucose and 0.135 M MOPS buffer (pH 7.0) to 0.5-2×10^4 cfu/mL for Aspergillus spp. and other filamentous fungi and 0.5-2×10^3 cfu/mL for yeast. 80 μL of an organism suspension was added to each well of the plate containing drug dilutions.
This produced MIC plates with a drug range 50-0.05 mg/L and organism inocula of 1-2×10^4 cfu/mL for Aspergillus spp. and other filamentous fungi and 1-2×10^3 cfu/mL for yeasts. All plates were incubated for 24-48 hrs at 35° C. Growth was assessed by monitoring the optical density at 485 nm for each well. The MIC of a compound is the lowest drug concentration that inhibits growth of an organism by >80% compared with a drug free control. MICs are recorded as mg/L. Other growth media can be used for susceptibility testing, and the activity of the described compounds can also be assessed in a medium comprising 1% glucose, 1% ammonium chloride and 0.5% yeast extract (YAG medium). To perform MIC tests in this medium, dilutions of compounds are prepared in microtitre plates as described above. Fungal strains to be tested are grown and harvested in an identical manner to that described above, each organism suspension is then diluted in YAG medium to 0.5-2×10^4 cfu/mL for Aspergillus spp. and other filamentous fungi and 0.5-2×10^3 cfu/mL for yeast. 80 μL of an organism suspension was added to each well of the plate containing drug dilutions. This produced MIC plates with a drug range 50-0.05 mg/L and organism inocula of 1-2×10^4 cfu/mL for Aspergillus spp. and other filamentous fungi and 1-2×10^3 cfu/mL for yeasts. All plates were incubated for 24 hrs at 35° C. Growth was assessed by monitoring the optical density at 485 nm for each well. The MIC of a compound is the lowest drug concentration that inhibits growth of an organism by >70% compared with a drug free control. MICs are recorded as mg/L. In cases where the MIC of an organism is […] mg/L the MIC is repeated using a concentration range of 0.5-0.0005 mg/L. MIC tests in YAG medium have more clear-cut endpoints and have slightly lower MICs than those performed in RPMI medium.
The following organisms were tested: Absidia corymbifera, Aspergillus flavus, Aspergillus fumigatus AF293 and AF210, Aspergillus niger, Aspergillus terreus AT4 and AT49, Candida albicans, Candida glabrata, Candida krusei, Candida parapsilosis, Candida tropicalis, Fusarium solani, Rhizomucor sp., Scedosporium apiospermum, Scedosporium prolificans, Trichophyton mentagrophytes, and Trichophyton rubrum.
What is called MIC is the least concentration at which growth counts as inhibited. For `CC(C)c1nc(C(C)(C)c2ccc(NC(=O)C(=O)c3c(-c4ccccc4)cc4ccccn34)cc2)cn1C` [Example 16, N-{4-[1-(2-isopropyl-1-methyl-1H-imidazol-4-yl)-1-methyl-ethyl]-phenyl}-2-oxo-2-(2-phenyl-indolizin-3-yl)-acetamide], the MIC lay in the range of 1 to 10 µg/mL (≈ 1.98 to 19.8 µM).

In the case of `Cc1cc(C)nc(OCCOc2ccc(NC(=O)C(=O)c3c(-c4ccccc4)cc4ccccn34)cc2)c1` [Example 65, N-{4-[2-(4,6-Dimethyl-pyridin-2-yloxy)-ethoxy]-phenyl}-2-oxo-2-(2-phenyl-indolizin-3-yl)-acetamide], the MIC is less than 1 µg/mL. For the compound `COCCOCCOc1cc(C)nc(N2CCN(c3ccc(NC(=O)C(=O)c4c(-c5ccccc5)cc5ccccn45)cc3)CC2)c1` [Example 76, N-[4-(4-{4-[2-(2-methoxy-ethoxy)-ethoxyl]-6-methyl-pyridin-2-yl}-piperazin-1-yl)-phenyl]-2-oxo-2-(2-phenyl-indolizin-3-yl)-acetamide], the minimal inhibitory concentration (MIC) is less than 1 µg/mL. Take `Cc1cc(C)nc(N(C)CCNc2ccc(NC(=O)C(=O)c3c(-c4ccccc4)cc4ccccn34)cc2)c1` [Example 78, N-(4-{2-[(4,6-Dimethyl-pyridin-2-yl)-methyl-amino]-ethylamino}-phenyl)-2-oxo-2-(2-phenyl-indolizin-3-yl)-acetamide]: the MIC is less than 1 µg/mL. As for `Cc1cc(C)nc(NCCNc2ccc(NC(=O)C(=O)c3c(-c4ccccc4)cc4ccccn34)cc2)c1` [Example 92, N-{4-[2-(4,6-dimethyl-pyridin-2-yl-amino)-ethylamino]-phenyl}-2-oxo-2-(2-phenyl-indolizin-3-yl)-acetamide], the minimal inhibitory concentration (MIC) is less than 1 µg/mL. For `CC(C)c1ncc(C(C)(C)c2cccc(NC(=O)C(=O)c3c(-c4ccccc4)cc4ccccn34)c2)n1C` [Example 15, N-{3-[1-(2-Isopropyl-3-methyl-3H-imidazol-4-yl)-1-methyl-ethyl]-phenyl}-2-oxo-2-(2-phenyl-indolizin-3-yl)-acetamide], the MIC is greater than 10 µg/mL. The value for `O=C(Nc1ccc(C(=O)OC2CCOCC2)c(O)c1)C(=O)c1c(-c2ccccc2)cc2ccccn12` [Example 11, 2-hydroxy-4-[2-oxo-2-(2-phenyl-indolizin-3-yl)-acetylamino]-benzoic acid tetrahydro-pyran-4-yl ester] was less than 1 µg/mL; that for `Cc1cc(C)nc(N2CCN(c3cccc(NC(=O)C(=O)c4c(-c5ccccc5)cc5ccccn45)c3)CC2)c1` [Example 48, N-{3-[4-(4,6-Dimethyl-pyridin-2-yl)-piperazin-1-yl]-phenyl}-2-oxo-2-(2-phenyl-indolizin-3-yl)-acetamide] was less than 1 µg/mL; that for `Cc1cc(C)nc(N2CCCN(c3ccc(NC(=O)C(=O)c4c(-c5ccccc5)cc5ccccn45)cc3)CC2)c1` [Example 54, N-{4-[4-(4,6-Dimethyl-pyridin-2-yl)-[1,4]diazepan-1-yl]-phenyl}-2-oxo-2-(2-phenyl-indolizin-3-yl)-acetamide] was less than 1 µg/mL. `CC(C)c1nccn1CCOC(=O)C(C)(C)c1ccc(NC(=O)C(=O)c2c(-c3ccccc3)cc3ccccn23)cc1` [Example 18, 2-methyl-2-{4-[2-oxo-2-(2-phenyl-indolizin-3-yl)-acetylamino]-phenyl}-propionic acid 2-(2-isopropyl-imidazol-1-yl)-ethyl ester]: the minimum inhibitory concentration (MIC) was greater than 10 µg/mL. On to `COCc1cc(NC(=O)C(=O)c2c(-c3ccccc3)cc3ccccn23)ccc1N1CCN(c2cc(C)cc(C)n2)CC1` [Example 81, N-{4-[4-(4,6-Dimethyl-pyridin-2-yl)-piperazin-1-yl]-3-methoxymethyl-phenyl}-2-oxo-2-(2-phenyl-indolizin-3-yl)-acetamide], for which the minimal inhibitory concentration (MIC) was less than 1 µg/mL. As to `Cc1cc(N2CCN(c3ccc(NC(=O)C(=O)c4c(-c5ccccc5)cc5ccccn45)cc3)CC2)cc(C)n1` [Example 52, N-{4-[4-(2,6-Dimethyl-pyridin-4-yl)-piperazin-1-yl]-phenyl}-2-oxo-2-(2-phenyl-indolizin-3-yl)-acetamide], the minimal inhibitory concentration (MIC) was greater than 10 µg/mL.

Regarding `COc1ccc(NC(=O)C(=O)c2c(C)c(-c3ccccc3)c3ccccn23)cc1` [Example 6, N-(4-methoxy-phenyl)-2-(2-methyl-1-phenyl-indolizin-3-yl)-2-oxo-acetamide], the MIC is greater than 10 µg/mL. Regarding `Cc1cc(C)nc(N2CCC(O)(c3ccc(NC(=O)C(=O)c4c(-c5ccccc5)cc5ccccn45)cc3)CC2)c1` [Example 79, N-[4-(4-hydroxy-4′,6′-dimethyl-3,4,5,6-tetrahydro-2H-[1,2′]-bipyridinyl-4-yl)-phenyl]-2-oxo-2-(2-phenyl-indolizin-3-yl)-acetamide], the minimum inhibitory concentration (MIC) is greater than 10 µg/mL. Consider `Cc1cc(C)nc(N2CCN(c3ccc(NC(=O)C(=O)c4c(C5CCCCC5)cc5ccccn45)cc3)CC2)c1` [Example 60, 2-(2-Cyclohexyl-indolizin-3-yl)-N-{4-[4-(4,6-dimethyl-pyridin-2-yl)-piperazin-1-yl]-phenyl}-2-oxo-acetamide], for which the minimum inhibitory concentration (MIC) is less than 1 µg/mL.

Turning to `CC(C)c1nc(C(C)(C)c2cccc(NC(=O)C(=O)c3c(-c4ccccc4)cc4ccccn34)c2)cn1C` [Example 14, N-{3-[1-(2-Isopropyl-1-methyl-1H-imidazol-4-yl)-1-methyl-ethyl]-phenyl}-2-oxo-2-(2-phenyl-indolizin-3-yl)-acetamide], the minimum inhibitory concentration (MIC) was greater than 10 µg/mL. For the compound `Cc1cc(C)nc(N(C)CCCN(C)c2ccc(NC(=O)C(=O)c3c(-c4ccccc4)cc4ccccn34)cc2)c1` [Example 67, N-[4-({3-[(4,6-dimethyl-pyridin-2-yl)-methyl-amino]-propyl}-methyl-amino)-phenyl]-2-oxo-2-(2-phenyl-indolizin-3-yl)-acetamide], the MIC was less than 1 µg/mL. `Cc1cc(OCCOc2ccc(NC(=O)C(=O)c3c(-c4ccccc4)cc4ccccn34)cc2)cc(C)n1` [Example 71, N-{4-[2-(2,6-Dimethyl-pyridin-4-yloxy)-ethoxy]-phenyl}-2-oxo-2-(2-phenyl-indolizin-3-yl)-acetamide]: the minimum inhibitory concentration (MIC) was less than 1 µg/mL. The value for `CS(=O)(=O)NC(=O)c1ccc(NC(=O)C(=O)c2c(-c3ccccc3)cc3ccccn23)cc1` [Example 5, N-(4-methanesulfonylaminocarbonyl-phenyl)-2-oxo-2-(2-phenyl-indolizin-3-yl)-acetamide] was greater than 10 µg/mL; that for `Cc1cc(C)nc(CCCCc2ccc(NC(=O)C(=O)c3c(-c4ccccc4)cc4ccccn34)cc2)c1` [Example 72, N-{4-[4-(4,6-Dimethyl-pyridin-2-yl)-butyl]-phenyl}-2-oxo-2-(2-phenyl-indolizin-3-yl)-acetamide] was less than 1 µg/mL; that for `Cc1cc(C)nc(N2CCN(c3ccc(NC(=O)C(=O)c4c(-c5ccccc5)cc5ccccn45)cc3)CC2)c1` [Example 21, N-{4-[4-(4,6-Dimethyl-pyridin-2-yl)-piperazin-1-yl]-phenyl}-2-oxo-2-(2-phenyl-indolizin-3-yl)-acetamide] was less than 1 µg/mL. To `O=C(Nc1ccc(-c2cocn2)cc1)C(=O)c1c(-c2ccc(-c3ccccc3)cc2)cc2ccccn12` [Example 85, 2-(2-Biphenyl-4-yl-indolizin-3-yl)-N-(4-oxazol-4-yl-phenyl)-2-oxo-acetamide] belongs greater than 10 µg/mL; to `Cc1cc(C)nc(N2CCN(c3ccc(NC(=O)C(=O)c4c(-c5ccccc5)cc5ccccn45)c(C)c3)CC2)c1` [Example 80, N-{4-[4-(4,6-Dimethyl-pyridin-2-yl)-piperazin-1-yl]-2-methyl-phenyl}-2-oxo-2-(2-phenyl-indolizin-3-yl)-acetamide], less than 1 µg/mL.

Regarding `CCC(CC)N1CCN(c2ccc(NC(=O)C(=O)c3c(-c4ccccc4Cl)cc4ccccn34)cn2)CC1` [Example 10, 2-[2-(2-chloro-phenyl)-indolizin-3-yl]-N-{6-[4-(1-ethyl-propyl)-piperazin-1-yl]-pyridin-3-yl}-2-oxo-acetamide], the MIC is less than 1 µg/mL.

The record behind these values is patent US8604029B2, “2-[(2-substituted)-indolizin-3-yl]-2-oxo-acetamide derivatives as antifungal agents” (F2G Ltd British Body Corporate, priority 2006, dated 2013).
